Measurements from patent publication US20240270758A1, “PYRIDINO-OR PYRIMIDO-CYCLIC COMPOUND, PREPARATION METHOD THEREFOR AND MEDICAL USE THEREOF” (Genfleet Therapeutics (Shanghai) Inc., priority 2021, published 2024).

Key:
Assay type in all cases: cell-based, human
[1] = system: p-ERK in AGS cells (KRAS^G12D mutation); assay: Cell p-ERK detection assay; details: 3 h incubation, HTRF
Procedure: AGS was purchased from ATCC; Cat. NO.: CRL-1739; F12K was purchased from Gibco; Cat. NO.: 21127-022; FBS was purchased from Gibco; Cat. NO.: 10099-141C; Trypsin (containing EDTA) was purchased from Gibco; Cat. NO.: 25200-072; DMSO was purchased from VWRAMRESCO; Cat. NO.: 0231-500ML; 96-well cell culture plate was purchased from Corning; Cat. NO.: 3599; An white background opaque 96-well plate was purchased from Cisbio; Cat. NO.: 66PL96025; Advance ERK phospho-T202/Y204 kit was purchased from Cisbio; Cat. NO.: 64AERPEH; Cell Counters were purchased from CHEMOMETEC; Model NO.: NC-200; microplate reader was purchased from PerkinElmer; Model NO.: Envison.
AGS is an endogenous human gastric adenocarcinoma cell line containing KRAS^G12D mutation, cultured in F12K+10% FBS medium. On the first day of the experiment, cells in the logarithmic growth phase were taken, digested with trypsin (containing EDTA), collected, and counted, and approximately 20,000 cells/well were inoculated in 96-well cell culture plates and cultured overnight in a 5% CO2 incubator. A 1000×3.16-fold gradient concentration stock of the compound was prepared using DMSO, diluted 200-fold into a 5× compound stock using the medium described above, and a 5× compound stock was added to each cell culture well the day after cell inoculating at a final concentration of 1× and a DMSO content of 0.1%. DMSO was used as an experimental control. After the compound was added and the incubation was continued for 3 h, the medium in the culture wells was removed, […] of cell lysis solution (from Advance ERK phospho-T202/Y204 kit, the same below) was added to each well, mixed well and incubated for 30 min, then […] of the mixed solution was transferred to a white background opaque 96-well plate, and another well was taken as a blank well with adding […] of cell lysis solution. After the transfer, […] of p-ERK HTRF antibody mixed solution (from Advance ERK phospho-T202/Y204 kit) was added to each well, after incubation for 4 h, HTRF fluorescence value (RLU) was read by a microplate reader, and p-ERK level inhibition ratio of the compound was calculated IR (%)=(RLU control-RLU compound)/(RLU control-RLU blank)×100%, compound concentration and corresponding cell p-ERK level inhibition ratio were fitted using Prism 8 four-parameter method, and IC50 value was calculated.

[2] = system: AGS cells (KRAS^G12D mutation); assay: Cell proliferation inhibition assay (3D, CellTiter-Glo), AGS; details: 3D cell model, 5 days
Source text: (§1) AsPC-1 was purchased from ATCC; Cat. NO.: CRL-1682; AGS was purchased from ATCC; Cat. NO.: CRL-1739; RPMI1640 was purchased from Gibco; Cat. NO.: 11875-093 2235123; F12K was purchased from Gibco; Cat. NO.: 21127-022; FBS was purchased from Gibco; Cat. NO.: 10099-141C; Trypsin (containing EDTA) was purchased from Gibco; Cat. NO.: 25200-072; CellTiter Glo-3D was purchased from Progema; Cat. NO.: G9683; 384-well sphere plates were purchased from coming; Cat. NO.: 3830; White background opaque 384-well plates were purchased from coming; Cat. NO.: 3570; Cell Counters were purchased from CHEMOMETEC; Model NO.: NC-200; microplate reader was purchased from PerkinElmer; Model NO.: Envison;
(§2) AsPC-1 is an endogenous human pancreatic cancer cell containing KRAS^G12D mutation, which is cultured in RPMI-1640 medium containing 10% FBS; AGS human gastric cancer cell line containing KRAS^G12D mutation, cultured in F-12K medium containing 10% FBS. Cells in the logarithmic growth phase were taken, digested with trypsin (containing EDTA), harvested and counted, and inoculated with 800 AsPC-1 cells/well or 400 AGS cells/well, respectively, in 384-well sphere plates and cultured overnight at 5% C02 to establish a 3D cell model. A 3.16-fold gradient concentration stock solution of 1000× compound was prepared using DMSO, diluted 100-fold into a 10× compound stock solution using media, and a 10× compound stock solution was added to each cell culture well the day after cell inoculating at a final concentration of 1× with a DMSO content of 0.1%. DMSO was used as an experimental control (control) and culture medium as a blank control (blank). After the addition of compounds, the cells were cultured for 5 days. […] CellTiter-Glo working solution was added to each well, mixed well, and incubated for 30 min. After standing for 30 min at room temperature, 40 μl of the mixed solution was transferred to a white background opaque 384-well plate. Luminescence chemiluminescence value was read on a microplate reader, and the cell proliferation inhibition ratio was calculated, IR (%)=(RLU control-RLU compound)/(RLU control-RLU blank)×100%. XLFit four-parameter method was used to fit the gradient dilution concentration of compounds and the corresponding cell proliferation inhibition ratio, and the IC50 value was calculated. […] Results for exemplary of the example compounds are shown in Table 3 below. - indicates not detected.

[3] = system: AsPC-1 cells (KRAS^G12D mutation); assay: Cell proliferation inhibition assay (3D, CellTiter-Glo), AsPC-1; details: 3D cell model, 5 days
Source text: as §1, §2

Row | Structure (SMILES) | IC50 ([1]; Homo sapiens, AGS, 3 h) [nM] | IC50 [1] [nM] | also measured
1 | C#Cc1cccc2cc(O)cc(-c3ncc4c(N5C[C@H]6CC[C@@H](C5)N6)nc(OCC56CCCN5CC(=C)C6)nc4c3F)c12 (stereo partly drawn) [Example Z8, 4-(4-((1R,5S)-3,8-diazabicyclo[3.2.1]octan-3-yl)-8-fluoro-2-((2-methylenetetrahydro-1H-pyrrolizin-7a(5H)-yl)methoxy)pyrido[4,3-d]pyrimidin-7-yl)-5-ethynylnaphthalen-2-ol] | 2.78 |  | IC50 ([2]; Homo sapiens, AGS, 120 h): 5.3 nM; IC50 ([3]; Homo sapiens, ASPC1, 120 h): 57.7 nM
2 | C#Cc1c(F)ccc2cc(O)cc(-c3ncc4c(N5C[C@H]6CC[C@@H](C5)N6)nc(OC[C@@]56CCCN5CC(=C)C6)nc4c3F)c12 [Example Z12, 4-(4-((1R,5S)-3,8-diazabicyclo[3.2.1]octan-3-yl)-8-fluoro-2-(((S)-2-methylenetetrahydro-1H-pyrrolizin-7a(5H)-yl)methoxy)pyrido[4,3-d]pyrimidin-7-yl)-5-ethynyl-6-fluoronaphthalen-2-ol] | 1.83 |  | IC50 ([2]; Homo sapiens, AGS, 120 h): 2.8 nM; IC50 ([3]; Homo sapiens, ASPC1, 120 h): 12.5 nM
3 | C#Cc1cccc2cc(O)cc(-c3ncc4c(N5C[C@H]6CC[C@@H](C5)N6)nc(OCC56CC(=C)CN5CC(=C)C6)nc4c3F)c12 [Example Z21] |  | 0.6 | IC50 [2]: 6.5 nM; IC50 [3]: 14.7 nM
4 | C#Cc1cccc2cc(O)cc(-c3ncc4c(N5C[C@H]6CC[C@@H](C5)N6)nc(OCC56CCC7(CC7)N5CC(=C)C6)nc4c3F)c12 (stereo partly drawn) [Example Z22, 4-(4-((1R,5S)-3,8-diazabicyclo[3.2.1]oct-3-yl)-8-fluoro-2-((6′-methylenetetrahydrospiro[cyclopropane-1,3′-pyrrolizin]-7a′(5′H)-yl)methoxy)pyrido[4,3-d]pyrimidin-7-yl)-5-ethynylnaphthalen-2-ol] | 2.41 |  | IC50 ([2]; Homo sapiens, AGS, 120 h): 10.8 nM; IC50 ([3]; Homo sapiens, ASPC1, 120 h): 75.4 nM
5 | C#Cc1cccc2cc(O)cc(-c3ncc4c(N5C[C@H]6CC[C@@H](C5)N6)nc(OCC56CC(=C)CN5[C@@H]5C[C@@H]5C6)nc4c3F)c12 (stereo partly drawn) [Example Z26, 4-(4-((1R,5S)-3,8-diazabicyclo[3.2.1]octan-3-yl)-8-fluoro-2-(((1aR,6aR)-4-methylenehexahydrocyclopropa[b]pyrrolizin-5a(3H)-yl)methoxy)pyrido[4,3-d]pyrimidin-7-yl)-5-ethynylnaphthalen-2-ol] | 2.76 |  | 
6 | C#Cc1cccc2cc(O)cc(-c3cc4nc(OCC56CCCN5CC(=C)C6)nc(N5CC6CCC(C5)N6)c4cn3)c12 (stereo not drawn) [Example Z191, 4-(4-(3,8-diazabicyclo[3.2.1]octan-3-yl)-2-((2-methylenetetrahydro-1H-pyrrolizin-7a(5H)-yl)methoxy)pyrido[4,3-d]pyrimidin-7-yl)-5-ethynylnaphthalen-2-ol] | 612 |  | 
7 | C#Cc1cccc2cc(O)cc(-c3ncc4c(N5CC6CCC(C6)C5)nc(OC[C@@]56CCCN5C[C@H](F)C6)nc4c3F)c12 [Example Z192, 4-(4-((1R,5S)-3-azabicyclo[3.2.1]octan-3-yl)-8-fluoro-2-(((2R,7aS)-2-fluorotetrahydro-1H-pyrrolin-7a(5H)-yl)methoxy)pyrido[4,3-d]pyrimidin-7-yl)-5-ethynylnaphthalen-2-ol] |  | 93.5 | 
8 | C#Cc1cccc2cccc(-c3c(Cl)cc4c(N5C[C@H]6CC[C@@H](C5)N6)nc(OCC56CCCN5CC(=C)C6)nc4c3F)c12 (stereo partly drawn) [Example Z193, 4-((1R,5S)-3,8-diazabicyclo[3.2.1]octan-3-yl)-6-chloro-7-(8-ethynylnaphthalen-1-yl)-8-fluoro-2-((2-methylenetetrahydro-1H-pyrrolizin-7a(5H)-yl)methoxy)quinazoline] | 623 |  | 
9 | C#Cc1c(Cl)ccc2cccc(-c3ncc4c(N5C[C@H]6CC[C@@H](C5)N6)nc(OCC56CC(=C)CN5CC(=C)C6)nc4c3F)c12 [Example Z195, 4-((1R,5S)-3,8-diazabicyclo[3.2.1]octan-3-yl)-7-(7-chloro-8-ethynylnaphthalen-1-yl)-2-((2,6-dimethylenetetrahydro-1H-pyrrolizin-7a(5H)-yl)methoxy)-8-fluoropyrido[4,3-d]pyrimidine] | 162 |  | 
10 | C#Cc1cc(F)cc2cccc(-c3ncc4c(N5CC6CCC(C5)N6)nc(OCC56CC(=C)CN5CC(=C)C6)nc4c3F)c12 [Example Z198] |  | 89.7 | 
11 | C#Cc1cccc2nc(N)cc(-c3ncc4c(N5CC6CCC(C5)N6)nc(OCC56CC(=C)CN5CC(=C)C6)nc4c3F)c12 [Example Z201, 4-(4-(3,8-diazabicyclo[3.2.1]octan-3-yl)-2-((2,6-dimethylenetetrahydro-1H-pyrrolizin-7a(5H)-yl)methoxy)-8-fluoropyrido[4,3-d]pyrimidin-7-yl)-5-ethynylquinolin-2-amine] | 238 |  | 
12 | C#Cc1cccc2c(F)c(O)cc(-c3ncc4c(N5CC6CCC(C5)N6)nc(OCC56CC(=C)CN5CC(=C)C6)nc4c3F)c12 [Example Z203, 4-(4-(3,8-diazabicyclo[3.2.1]octan-3-yl)-2-((2,6-dimethylenetetrahydro-1H-pyrrolizin-7a(5H)-yl)methoxy)-8-fluoropyrido[4,3-d]pyrimidin-7-yl)-5-ethynyl-1-fluoronaphthalen-2-ol] | 25.6 |  | 
13 | C#Cc1cccc2cc(O)cc(-c3ncc4c(N5C[C@H]6CC[C@@H](C5)[C@@H]6O)nc(OC[C@@]56CCCN5C[C@H](F)C6)nc4c3F)c12 [Example Z205-1, (1R,5S,8R)-3-(7-(8-ethynyl-3-hydroxynaphthalen-1-yl)-8-fluoro-2-(((2R,7aS)-2-fluorotetrahydro-1H-pyrrolizin-7a(5H)-yl)methoxy)pyrido[4,3-d]pyrimidin-4-yl)-3-azabicyclo[3.2.1]octan-8-ol] |  | 612 | 
14 | C#Cc1cccc2cc(O)cc(-c3ncc4c(N5C[C@H]6CC[C@@H](C5)[C@H]6O)nc(OC[C@@]56CCCN5C[C@H](F)C6)nc4c3F)c12 [Example Z205-2, (1R, 5S, 8S)-3-(7-(8-ethynyl-3-hydroxynaphthalen-1-yl)-8-fluoro-2-(((2R,7aS)-2-fluorotetrahydro-1H-pyrrolizin-7a(5H)-yl)methoxy)pyrido[4,3-d]pyrimidin-4-yl)-3-azabicyclo[3.2.1]octan-8-ol] |  | 206 | 
15 | C#Cc1cccc2c(O)ccc(-c3ncc4c(N5C[C@H]6CC[C@@H](C5)N6)nc(OCC56CC(=C)CN5CC(=C)C6)nc4c3F)c12 [Example Z208, 4-(4-((1R,5S)-3,8-diazabicyclo[3.2.1]octan-3-yl)-2-((2,6-dimethylenetetrahydro-1H-pyrrolizin-7a(5H)-yl)methoxy)-8-fluoropyrido[4,3-d]pyrimidin-7-yl)-5-ethynylnaphthalen-1-ol] | 9.04 |  | 
16 | C#Cc1cccc2c(N)ccc(-c3ncc4c(N5CC6CCC(C5)N6)nc(OCC56CC(=C)CN5CC(=C)C6)nc4c3F)c12 [Example Z209] |  | 464 | 
